According to patent US20100267561A1, “HERBICIDAL PYRIDAZINONE DERIVATIVES” (priority 2007, published 2010):

Experiments:
Test in all cases: Test B pre-/postemergence plant response
Type in all cases: in vivo
[1] = tested on: common ragweed (Ambrosia elation)
Outline: (§1)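 Preemergence and postemergence (plants 2-18 cm, 1- to 4-leaf stage) applications used test chemicals in a non-phytotoxic solvent with surfactant. Plants were held in a greenhouse 13 to 15 days, then rated visually against controls on a 0-100 scale (0 no effect, 100 complete control).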

[2] = tested on: lambsquarters (Chenopodium album)
Outline: as §1

[3] = tested on: large crabgrass (Digitaria sanguinalis); conditions: for Crabgrass, Large plant response rating: 8 g ai/ha
Outline: as §1

[4] = tested on: surinam grass (Brachiaria decumbens)
Outline: as §1

[5] = tested on: blackgrass (Alopecurus myosuroides); conditions: for Blackgrass plant response rating: 8 g ai/ha
Outline: as §1

soybean (Glycine max) = tested on: soybean (Glycine max)
Outline: as §1

[6] = tested on: goosegrass (Eleusine indica)
Outline: as §1

[7] = tested on: eastern black (E.B.) nightshade (Solanum ptycanthum); conditions: Preemergence; for Nightshade, E. B. plant response rating: 8 g ai/ha
Outline: as §1

wild oat (Avena fatua) = tested on: wild oat (Avena fatua)
Outline: as §1

[8] = tested on: wheat (Triticum aestivum)
Outline: as §1

[9] = tested on: green foxtail (Setaria viridis); conditions: for Foxtail, Green plant response rating: 8 g ai/ha
Outline: as §1

[10] = tested on: common (oilseed) sunflower (Helianthus annuus); conditions: Preemergence; for Sunflower plant response rating: 8 g ai/ha
Outline: as §1

[11] = tested on: morningglory (Ipomoea coccinea)
Outline: as §1

kochia (Kochia scoparia) = conditions: for Kochia plant response rating: postemergence, 0-100 scale; for Plant response rating, Kochia: Postemergence
Outline: as §1

[12] = Preemergence, 16 g ai/ha, scale 0 to 100 (0 no effect, 100 complete control)
[13] = Preemergence, 31 g ai/ha, 0 to 100 scale, 0 no effect, 100 complete control
[14] = Preemergence, 62 g ai/ha, scale 0 to 100
[15] = Preemergence, 8 g ai/ha, scale 0 to 100
[16] = 16 g ai/ha, scale 0 to 100 (0 no effect, 100 complete control)
[17] = 31 g ai/ha, 0 to 100 scale, 0 no effect, 100 complete control
[18] = Preemergence, 31 g ai/ha, scale 0 to 100 (0 no effect, 100 complete control)
[19] = Preemergence, 62 g ai/ha, 0 to 100 scale, 0 no effect, 100 complete control
[20] = 31 g ai/ha, scale 0 to 100 (0 no effect, 100 complete control)
[21] = 62 g ai/ha, scale 0 to 100, 0 no effect, 100 complete control
[22] = 8 g ai/ha, postemergence, 0-100 scale
[23] = Postemergence, 16 g ai/ha, scale 0 to 100
[24] = Postemergence, 31 g ai/ha, scale 0 to 100
[25] = Postemergence, 62 g ai/ha, scale 0 to 100, 0 no effect, 100 complete control
[26] = 16 g ai/ha, postemergence, 0-100 scale

Cc1cc(-c2ccc(C(F)(F)F)cc2)nn1-c1c(O)c(C(C)C)nn(C)c1=O [Compound 27]
15: Plant response rating, Wheat [8, 13]
50: Plant response rating, Blackgrass [5, 13] | Plant response rating, Oat, Wild (wild oat (Avena fatua); [13]) | Plant response rating, Oat, Wild (wild oat (Avena fatua); [14])
85: Plant response rating, Foxtail, Green [9, 14]
75: Plant response rating, Surinam Grass [4, 14] | Plant response rating, Goosegrass [6, 12]
45: Plant response rating, Wheat [8, 14]
60: Plant response rating, Foxtail, Green [9, 13]
0: Plant response rating, Ragweed [1, 12] | Plant response rating, Ragweed [1, 13] | Plant response rating, Ragweed [1, 14] | Ragweed plant response rating [1, 15] | Plant response rating, Lambsquarters [2, 12] | Plant response rating, Lambsquarters [2, 14] | Lambsquarters plant response rating [2, 15] | Plant response rating, Crabgrass, Large [3, 12] | Plant response rating, Crabgrass, Large [3, 13] | Plant response rating, Crabgrass, Large [3, 14] | Crabgrass, Large plant response rating ([3]; Preemergence, scale 0 to 100) | Plant response rating, Surinam Grass [4, 12] | Plant response rating, Surinam Grass [4, 13] | Surinam Grass plant response rating [4, 15] | Plant response rating, Soybean (soybean (Glycine max); [12]) | Plant response rating, Soybean (soybean (Glycine max); [13]) | Plant response rating, Soybean (soybean (Glycine max); [14]) | Soybean plant response rating (soybean (Glycine max); [15]) | Goosegrass plant response rating [6, 15] | Plant response rating, Nightshade, E. B. [7, 16] | Plant response rating, Nightshade, E. B. [7, 17] | Plant response rating, Nightshade, E. B. ([7]; 62 g ai/ha, scale 0 to 100) | Nightshade, E. B. plant response rating ([7]; scale 0 to 100) | Plant response rating, Oat, Wild (wild oat (Avena fatua); [12]) | Oat, Wild plant response rating (wild oat (Avena fatua); [15]) | Plant response rating, Wheat [8, 12] | Wheat plant response rating [8, 15] | Plant response rating, Foxtail, Green [9, 12] | Foxtail, Green plant response rating ([9]; Preemergence, scale 0 to 100) | Plant response rating, Sunflower [10, 16] | Plant response rating, Sunflower [10, 17] | Plant response rating, Sunflower ([10]; 62 g ai/ha, scale 0 to 100) | Sunflower plant response rating ([10]; scale 0 to 100) | Plant response rating, Morningglory [11, 12] | Plant response rating, Morningglory [11, 13] | Plant response rating, Morningglory [11, 14] | Morningglory plant response rating [11, 15]
95: Plant response rating, Goosegrass [6, 13] | Plant response rating, Goosegrass [6, 14]
100: Plant response rating, Blackgrass [5, 14]
20: Plant response rating, Blackgrass [5, 12]

Cc1ccc(-c2ccc(Cl)cc2)cc1-c1c(O)cnn(C)c1=O [Compound 46]
100: Plant response rating, Crabgrass, Large [3, 14] | Plant response rating, Goosegrass [6, 12] | Plant response rating, Goosegrass [6, 13] | Plant response rating, Goosegrass [6, 14] | Plant response rating, Nightshade, E. B. ([7]; 62 g ai/ha, scale 0 to 100) | Plant response rating, Foxtail, Green [9, 14]
0: Plant response rating, Ragweed [1, 12] | Plant response rating, Ragweed [1, 18] | Plant response rating, Ragweed [1, 14] | Ragweed plant response rating [1, 15] | Plant response rating, Lambsquarters [2, 12] | Plant response rating, Lambsquarters [2, 13] | Plant response rating, Lambsquarters [2, 14] | Lambsquarters plant response rating [2, 15] | Plant response rating, Crabgrass, Large [3, 12] | Crabgrass, Large plant response rating ([3]; Preemergence, scale 0 to 100) | Plant response rating, Surinam Grass [4, 12] | Plant response rating, Surinam Grass [4, 18] | Plant response rating, Surinam Grass [4, 19] | Surinam Grass plant response rating [4, 15] | Blackgrass plant response rating ([5]; Preemergence, scale 0 to 100) | Plant response rating, Soybean (soybean (Glycine max); [12]) | Plant response rating, Soybean (soybean (Glycine max); [18]) | Plant response rating, Soybean (soybean (Glycine max); [14]) | Soybean plant response rating (soybean (Glycine max); [15]) | Goosegrass plant response rating [6, 15] | Plant response rating, Nightshade, E. B. [7, 16] | Nightshade, E. B. plant response rating ([7]; scale 0 to 100) | Plant response rating, Oat, Wild (wild oat (Avena fatua); [12]) | Plant response rating, Oat, Wild (wild oat (Avena fatua); [18]) | Oat, Wild plant response rating (wild oat (Avena fatua); [15]) | Plant response rating, Wheat [8, 12] | Plant response rating, Wheat [8, 18] | Plant response rating, Wheat [8, 19] | Wheat plant response rating [8, 15] | Foxtail, Green plant response rating ([9]; Preemergence, scale 0 to 100) | Plant response rating, Sunflower [10, 16] | Plant response rating, Sunflower [10, 20] | Plant response rating, Sunflower ([10]; 62 g ai/ha, scale 0 to 100) | Sunflower plant response rating ([10]; scale 0 to 100) | Plant response rating, Morningglory [11, 12] | Plant response rating, Morningglory [11, 18] | Plant response rating, Morningglory [11, 14] | Morningglory plant response rating [11, 15]
80: Plant response rating, Foxtail, Green [9, 13]
60: Plant response rating, Crabgrass, Large [3, 13]
10: Plant response rating, Foxtail, Green [9, 12]
35: Plant response rating, Oat, Wild (wild oat (Avena fatua); [14])
30: Plant response rating, Blackgrass [5, 12]
40: Plant response rating, Blackgrass [5, 13]
20: Plant response rating, Nightshade, E. B. [7, 20]
85: Plant response rating, Blackgrass [5, 14]

Cc1nn(C)c(=O)c(-n2nc(-c3ccc(Cl)cc3)cc2Cl)c1O [Compound 59]
70: Plant response rating, Oat, Wild (wild oat (Avena fatua); [24])
40: Plant response rating, Wheat [8, 24]
15: Plant response rating, Wheat [8, 23]
80: Plant response rating, Oat, Wild (wild oat (Avena fatua); [25])
20: Crabgrass, Large plant response rating ([3]; postemergence, 0-100 scale)
95: Plant response rating, Foxtail, Green [9, 25]
75: Surinam Grass plant response rating [4, 22]
85: Plant response rating, Surinam Grass [4, 23]
0: Kochia plant response rating (kochia (Kochia scoparia); 8 g ai/ha) | Plant response rating, Kochia (kochia (Kochia scoparia); 16 g ai/ha, scale 0 to 100) | Plant response rating, Kochia (kochia (Kochia scoparia); 31 g ai/ha, scale 0 to 100) | Plant response rating, Kochia (kochia (Kochia scoparia); [21]) | Ragweed plant response rating [1, 22] | Plant response rating, Ragweed [1, 23] | Plant response rating, Ragweed [1, 24] | Plant response rating, Ragweed [1, 25] | Lambsquarters plant response rating [2, 22] | Plant response rating, Lambsquarters [2, 23] | Plant response rating, Lambsquarters [2, 24] | Plant response rating, Lambsquarters [2, 25] | Blackgrass plant response rating ([5]; postemergence, 0-100 scale) | Soybean plant response rating (soybean (Glycine max); [22]) | Plant response rating, Soybean (soybean (Glycine max); [23]) | Plant response rating, Soybean (soybean (Glycine max); [24]) | Plant response rating, Soybean (soybean (Glycine max); [25]) | Goosegrass plant response rating [6, 22] | Plant response rating, Goosegrass [6, 23] | Plant response rating, Goosegrass [6, 24] | Plant response rating, Goosegrass [6, 25] | Wheat plant response rating [8, 22] | Morningglory plant response rating [11, 22] | Plant response rating, Morningglory [11, 23] | Plant response rating, Morningglory [11, 24] | Plant response rating, Morningglory [11, 25]
45: Plant response rating, Crabgrass, Large [3, 23] | Oat, Wild plant response rating (wild oat (Avena fatua); [22])
60: Plant response rating, Crabgrass, Large [3, 25] | Plant response rating, Blackgrass [5, 23] | Plant response rating, Oat, Wild (wild oat (Avena fatua); [23])
100: Plant response rating, Surinam Grass [4, 25]
55: Plant response rating, Crabgrass, Large [3, 24]
50: Plant response rating, Wheat [8, 25] | Foxtail, Green plant response rating ([9]; postemergence, 0-100 scale)
90: Plant response rating, Surinam Grass [4, 24] | Plant response rating, Blackgrass [5, 24] | Plant response rating, Blackgrass [5, 25] | Plant response rating, Foxtail, Green [9, 23] | Plant response rating, Foxtail, Green [9, 24]

CCc1cc(-c2ccc(Br)cc2)nn1-c1c(O)cnn(CC(F)(F)F)c1=O [Compound 73]
70: Plant response rating, Crabgrass, Large [3, 23] | Goosegrass plant response rating [6, 22] | Oat, Wild plant response rating (wild oat (Avena fatua); [22]) | Plant response rating, Foxtail, Green [9, 23] | Plant response rating, Foxtail, Green [9, 24]
100: Plant response rating, Crabgrass, Large [3, 24] | Plant response rating, Crabgrass, Large [3, 25] | Plant response rating, Surinam Grass [4, 25] | Plant response rating, Blackgrass [5, 23] | Plant response rating, Blackgrass [5, 24] | Plant response rating, Blackgrass [5, 25] | Plant response rating, Oat, Wild (wild oat (Avena fatua); [24]) | Plant response rating, Oat, Wild (wild oat (Avena fatua); [25]) | Plant response rating, Foxtail, Green [9, 25]
5: Wheat plant response rating [8, 22]
90: Surinam Grass plant response rating [4, 26] | Plant response rating, Surinam Grass [4, 24] | Goosegrass plant response rating [6, 26] | Plant response rating, Goosegrass [6, 24] | Plant response rating, Goosegrass [6, 25] | Plant response rating, Wheat [8, 24]
0: Kochia plant response rating (kochia (Kochia scoparia); 8 g ai/ha) | Kochia plant response rating (kochia (Kochia scoparia); 16 g ai/ha) | Plant response rating, Kochia (kochia (Kochia scoparia); 31 g ai/ha, scale 0 to 100) | Plant response rating, Kochia (kochia (Kochia scoparia); [21]) | Ragweed plant response rating [1, 22] | Ragweed plant response rating [1, 26] | Plant response rating, Ragweed [1, 24] | Plant response rating, Ragweed [1, 25] | Lambsquarters plant response rating [2, 22] | Lambsquarters plant response rating [2, 26] | Plant response rating, Lambsquarters [2, 24] | Plant response rating, Lambsquarters [2, 25] | Soybean plant response rating (soybean (Glycine max); [22]) | Soybean plant response rating (soybean (Glycine max); [26]) | Morningglory plant response rating [11, 22] | Morningglory plant response rating [11, 26] | Plant response rating, Morningglory [11, 24] | Plant response rating, Morningglory [11, 25]
45: Crabgrass, Large plant response rating ([3]; postemergence, 0-100 scale)
60: Surinam Grass plant response rating [4, 22] | Blackgrass plant response rating ([5]; postemergence, 0-100 scale) | Wheat plant response rating [8, 26]
95: Oat, Wild plant response rating (wild oat (Avena fatua); [26]) | Plant response rating, Wheat [8, 25]
10: Plant response rating, Soybean (soybean (Glycine max); [24]) | Plant response rating, Soybean (soybean (Glycine max); [25])
40: Foxtail, Green plant response rating ([9]; postemergence, 0-100 scale)
